Drawing on ChEMBL document CHEMBL1201862, “PubChem BioAssay data set” (2004), this text covers EC50 and AC50 for 55 molecules.

Experiment [1] can be described thus: inhibitors of intracellular T. cruzi replication, confirmation, NIH3T3 host cells, beta-gal luminescence (AID 2044).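 Further: intracellular parasites grown in NIH/3T3 mouse fibroblasts as host cells; luminescent beta-galactosidase reporter signal from transgenic T. cruzi replicating inside host cells; inhibitors lower the luminescence signal.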 Type of experiment: functional, cell-based.
The nature of experiment [2]: cytotoxicity toward NIH3T3 fibroblasts, dose response, counter-screen, cell-based, ATP luminescence, mouse fibroblasts (AID 2010).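 Further: cells exposed to compound for about 90 hours before reading.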 Type of experiment: functional.
In another experiment the target is Cytochrome P450 3A4 (Homo sapiens, UniProt P08684).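 Further: CYP3A4 tested as one member of a cytochrome P450 panel screen.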
The next experiment concerns the target Cytochrome P450 2C9 (Homo sapiens, UniProt P11712).
Experiment [3] concerns the target T1, Heat shock factor protein 1 (Mus musculus, UniProt P38532).
T1 sequence (P38532 whole entry): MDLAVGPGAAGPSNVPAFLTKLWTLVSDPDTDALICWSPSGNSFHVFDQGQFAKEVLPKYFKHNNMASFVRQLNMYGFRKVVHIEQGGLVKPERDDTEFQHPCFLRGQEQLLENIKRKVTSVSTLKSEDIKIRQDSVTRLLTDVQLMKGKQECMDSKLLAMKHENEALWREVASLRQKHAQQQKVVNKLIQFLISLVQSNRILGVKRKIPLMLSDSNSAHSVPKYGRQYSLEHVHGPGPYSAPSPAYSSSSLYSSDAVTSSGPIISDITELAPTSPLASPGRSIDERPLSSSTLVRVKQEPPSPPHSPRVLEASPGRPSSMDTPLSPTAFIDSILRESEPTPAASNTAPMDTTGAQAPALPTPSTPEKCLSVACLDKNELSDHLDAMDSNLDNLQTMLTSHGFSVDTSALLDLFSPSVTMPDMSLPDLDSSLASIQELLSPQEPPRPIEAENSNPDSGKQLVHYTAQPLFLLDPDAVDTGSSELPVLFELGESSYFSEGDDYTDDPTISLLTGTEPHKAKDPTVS
As to the kind of experiment: inhibition of MG132-induced HSE-luciferase signal, confirmation, cell-based, NIH3T3, luminescence, dose retest (AID 2382).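 Further: NIH3T3 fibroblasts with HSF1-driven luciferase reporter stressed by proteasome inhibitor MG132; luminescence from HSF1-driven luciferase expression after 8 hours of MG132 stress.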 Type of experiment: functional.

A short description of experiment [4]: Luminescence Cell-Based Dose Response HTS to Identify Activators of Luciferase Translation or Activity in H4 […] Cells. [Related pubchem assays: 1829 (Project Summary), 1814 (Primary HTS)]. The format is functional.
In experiment [5] the target is T2, Corticotropin-releasing factor receptor 2/Corticotropin-releasing factor-binding protein (Homo sapiens, UniProt P24387+Q13324).
T2 sequence (Q13324 whole entry): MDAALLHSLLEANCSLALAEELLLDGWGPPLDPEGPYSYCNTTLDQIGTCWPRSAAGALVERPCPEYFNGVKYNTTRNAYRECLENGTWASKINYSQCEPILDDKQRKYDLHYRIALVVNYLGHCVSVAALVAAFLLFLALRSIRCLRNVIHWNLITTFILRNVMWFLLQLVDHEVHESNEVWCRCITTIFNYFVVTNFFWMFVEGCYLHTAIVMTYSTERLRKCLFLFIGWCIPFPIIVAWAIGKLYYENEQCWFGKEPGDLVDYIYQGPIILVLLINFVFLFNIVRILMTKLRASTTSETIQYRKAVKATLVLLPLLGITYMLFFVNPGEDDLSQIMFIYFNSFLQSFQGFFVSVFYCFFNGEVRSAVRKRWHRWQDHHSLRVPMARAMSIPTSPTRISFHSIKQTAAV
T2 sequence (P24387 whole entry): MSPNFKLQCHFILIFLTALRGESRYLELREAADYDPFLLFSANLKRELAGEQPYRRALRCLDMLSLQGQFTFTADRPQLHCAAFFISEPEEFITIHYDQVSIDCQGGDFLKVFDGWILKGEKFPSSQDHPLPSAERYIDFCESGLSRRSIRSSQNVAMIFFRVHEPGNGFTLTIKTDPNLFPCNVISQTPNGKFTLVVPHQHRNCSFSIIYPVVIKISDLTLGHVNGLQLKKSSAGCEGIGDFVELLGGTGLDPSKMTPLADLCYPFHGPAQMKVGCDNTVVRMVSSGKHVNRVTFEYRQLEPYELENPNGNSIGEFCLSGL
As to the kind of experiment: activators of CRF receptor 2 with binding protein – uHTS hits, confirmation (AID 602473). The format is functional. The following applies: read-out: EC50_Mean.

Values joined by “and” are separate entries in the source; they are usually repeats but may differ in a detail not shown here. Identical values can stand only once. Active and inactive are the calls of the source. For most assays here, no stated cut-off is given here; in the data, actives have a measured EC50 and inactives only a lower limit.

Cytochrome P450 3A4, sequence (P08684 whole entry): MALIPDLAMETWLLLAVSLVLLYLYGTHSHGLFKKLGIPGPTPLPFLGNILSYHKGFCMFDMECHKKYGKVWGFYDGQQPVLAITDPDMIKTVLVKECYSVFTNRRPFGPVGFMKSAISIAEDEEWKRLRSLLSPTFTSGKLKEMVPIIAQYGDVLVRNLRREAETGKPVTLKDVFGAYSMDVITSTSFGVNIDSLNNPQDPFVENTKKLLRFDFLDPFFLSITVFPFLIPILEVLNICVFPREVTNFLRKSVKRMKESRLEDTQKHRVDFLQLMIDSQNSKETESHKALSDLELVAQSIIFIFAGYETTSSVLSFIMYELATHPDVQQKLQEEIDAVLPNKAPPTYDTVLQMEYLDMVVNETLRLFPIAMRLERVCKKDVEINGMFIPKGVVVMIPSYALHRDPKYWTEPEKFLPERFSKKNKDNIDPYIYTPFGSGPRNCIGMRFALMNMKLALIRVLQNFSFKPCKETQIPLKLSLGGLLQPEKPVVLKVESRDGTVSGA
Cytochrome P450 2C9, sequence (P11712 whole entry): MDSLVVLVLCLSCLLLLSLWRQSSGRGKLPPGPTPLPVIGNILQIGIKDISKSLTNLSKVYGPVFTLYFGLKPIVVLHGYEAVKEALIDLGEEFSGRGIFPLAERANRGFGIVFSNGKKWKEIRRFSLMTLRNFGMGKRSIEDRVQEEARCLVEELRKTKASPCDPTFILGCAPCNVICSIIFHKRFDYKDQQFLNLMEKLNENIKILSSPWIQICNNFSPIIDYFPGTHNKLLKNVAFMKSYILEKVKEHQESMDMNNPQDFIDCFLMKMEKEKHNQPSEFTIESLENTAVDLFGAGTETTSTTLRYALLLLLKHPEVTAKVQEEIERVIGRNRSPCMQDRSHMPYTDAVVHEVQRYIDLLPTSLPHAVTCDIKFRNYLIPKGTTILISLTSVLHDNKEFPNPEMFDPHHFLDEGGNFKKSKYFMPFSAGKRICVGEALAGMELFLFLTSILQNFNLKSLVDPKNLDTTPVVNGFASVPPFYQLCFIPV

Regarding `CCN1CCN(c2ccc(S(=O)(=O)N3CCCCC3)cc2NC(=O)Cc2ccccc2F)CC1`, the figures for the EC50 in experiment [1] and in experiment [2] were 0.235 µM (active) and > 30 µM (not active), respectively. One may read the AC50 as the concentration at which the activity in the assay is half-maximal. Regarding `CCC(=O)N(Cc1ccco1)c1nc(-c2ccccc2)cs1`, at Cytochrome P450 3A4, the AC50 was 39.8 µM (inconclusive).

With `O=C(NNC(=S)Nc1ccccc1)c1ccco1`, the AC50 at Cytochrome P450 2C9 was 35.5 µM (inconclusive). Turning to `O=C(Nc1cccc(F)c1)N1CC[C@@]2(CCCNC2)C1`, on Cytochrome P450 3A4, the AC50 is 7.94 µM (inconclusive). As to `CCN(CC(=O)Nc1ccc(NC(C)=O)cc1)C(=O)C12CC3CC(CC(Cl)(C3)C1)C2`, the EC50 in experiment [3] is reported as > 195 µM (not active). Turning to `Cn1c(CN2CCCC(C(=O)c3ccc4c(c3)OCO4)C2)nc2ccccc21` (stereo not drawn), the EC50 in experiment [1] is 1.35 µM (active); in experiment [2], > 60 µM (inconclusive). With `C/C(=N\Nc1ccc(C(=O)O)cc1)c1nc2ccccc2n1C`, the EC50 in experiment [4] was 18.9 µM (active). Turning to `CC(C)(C)S(=O)(=O)c1cnc2c(-c3ccc(F)cc3)cnn2c1N`, the AC50 on Cytochrome P450 3A4 is 7.94 µM (inconclusive). Take `Cc1c(C(=O)Nc2ccc(Cl)cc2)c2ccccn2c1C(=O)c1ccc([N+](=O)[O-])cc1`: the EC50 in experiment [1] is 0.737 µM (active); in experiment [2] it was > 60 µM (not active). In the case of `CN(C)c1ccc(/N=C/c2nc(-c3ccccc3)oc2OC(=O)c2cccc(Br)c2)cc1`, in experiment [4], the EC50 was 31 µM (active). Consider `CNC(=O)c1ccsc1NC(=O)c1ccc(S(=O)(=O)N2CCCc3ccccc32)cc1`, for which the EC50 was 2.02 µM (active) in experiment [1] and > 60 µM (inconclusive) in experiment [2]. For `O=C1NC(=O)[C@@](Cc2ccccc2)(c2cccnc2)N1`, the AC50 on Cytochrome P450 3A4 was 3.98 µM (inconclusive).

As to `CCN(CC)S(=O)(=O)c1cc(C(=O)Nc2ccccc2C(=O)O)ccc1OC`, the AC50 on Cytochrome P450 3A4 is 12.6 µM (inconclusive). In the case of `NS(=O)(=O)c1ccc(NC(=O)COC(=O)C2(c3ccccc3F)CCCC2)cc1`, the EC50 in experiment [3] is 26 µM (active). For the molecule `Cc1n[nH]c(Nc2ccccc2)c1[N+](=O)[O-]`, on Cytochrome P450 3A4, the AC50 was 25.1 µM (inconclusive). Regarding `CC(=O)Nc1ccc2nc(NC(=O)c3ccc([N+](=O)[O-])s3)sc2c1`, the EC50 in experiment [1] is 0.993 µM (active); in experiment [2] it was > 60 µM (not active). With `CCN(CC)C(=O)N[C@@H]1C[C@H]2c3cccc4[nH]cc(c34)C[C@@H]2N(C)C1`, the AC50 on Cytochrome P450 3A4 is 6.31 µM (inconclusive) and 3.98 µM (inconclusive). For `COc1ccccc1Oc1ccc2c(c1)C(=O)N(c1ccc(Br)c3cccnc13)C2=O`, in experiment [3], the EC50 is > 195 µM (not active). For the molecule `COC(=O)[C@@]1(Cc2ccc(F)cc2)[C@H]2c3cc(C(=O)N4CCCC4)n(CCc4c[nH]c5ccc(OC)cc45)c3C[C@H]2CN1C(=O)c1ccccc1`, on Cytochrome P450 3A4, the AC50 was 0.251 µM (inconclusive). On to `N#CC(=C1CCCC1)c1nc(-c2ccccc2)cs1`, for which, at Cytochrome P450 2C9, the AC50 was 25.1 µM (inconclusive).

`COc1cc(CCC(=O)OCn2nnc3ccccc3c2=O)cc(OC)c1OC`: the EC50 in experiment [3] is > 195 µM (not active).

As for `COc1cccc(-c2nccc(NCc3cccc(C)c3)n2)c1`, the AC50 on Cytochrome P450 2C9 was 1.58 µM (inconclusive).

`O=C(O)CCC(=O)N1CCc2cc(S(=O)(=O)N3CCCCC3)ccc21`: the AC50 on Cytochrome P450 2C9 is 15.8 µM (inconclusive). For `CC(C)c1ccc(CNCCCSc2ncccn2)cc1`, the EC50 was 0.163 µM (active) in experiment [1] and > 30 µM (not active) in experiment [2]. Consider `Cc1cc(OCC(=O)N2CCOCC2)ccc1NC(=O)c1ccccc1C`, for which the EC50 in experiment [3] is recorded as > 195 µM (not active). As for `CC(=O)OCC(=O)NCC(=O)c1c[nH]c2ccccc12`, the EC50 in experiment [3] was > 195 µM (not active). Still for that read-out and setting: the result for `CN(Cc1nc(-c2ccccc2)no1)C(=O)c1ccc2c(c1)OCO2` reads > 195 µM (not active). As to `CC(C)N(CCNC(=O)C1CCC(=O)N1Cc1ccc(F)cc1)Cc1ccccc1` (stereo not drawn), the AC50 on Cytochrome P450 2C9 was 22.4 µM (inconclusive).

Consider `CCOc1ccc(C(=O)Nc2ccccc2N2CCCC2)cc1`, for which the half-maximal activity concentration (AC50) on Cytochrome P450 2C9 is 14.1 µM (inconclusive).

As to `COc1ccc(C(=O)C2CCCN(Cc3cccn3-c3ccc(Cl)cn3)C2)c(OC)c1` (stereo not drawn), the EC50 in experiment [1] was 1.47 µM (active); in experiment [2], > 60 µM (not active). `Fc1cccc(Cl)c1/C=N\N=C1c2ccccc2-c2ccccc21`: the AC50 on Cytochrome P450 2C9 is 3.16 µM (inconclusive). With `CCC(C)NC(=O)CN1C(=O)CN=C(c2ccccc2)c2ccccc21` (stereo not drawn), the EC50 in experiment [3] was > 195 µM (not active). Turning to `CCN1C(=O)c2ccccc2[S+]([O-])c2ccc(C(=O)NCc3ccc(OC)cc3)cc21` (stereo not drawn), the EC50 in experiment [3] is > 195 µM (not active).

On to `Cc1cc2nc(-c3ccc(SCc4ccc(C#N)cc4)nc3)[nH]c2cc1C`, for which the EC50 in experiment [1] is 2.06 µM (active); in experiment [2], > 60 µM (inconclusive). Consider `CCOC(=O)c1c(-c2ccccc2)n(C)c2ccc(O)cc12`, for which the EC50 in experiment [3] is > 195 µM (not active). Take `COc1ccccc1NC(=O)Cn1c(=O)c(N(C)C)c(N)n(C)c1=O`: the EC50 in experiment [3] is listed as > 195 µM (not active). As for `COc1ccc(CN2CC=C(c3ccc(F)cc3)CC2)cc1Br`, the EC50 in experiment [3] is listed as > 195 µM (not active). Take `c1cncc(CNc2cc(-c3ccoc3)ncn2)c1`: at Cytochrome P450 3A4, the AC50 was 3.98 µM (inconclusive). Take `Nc1ncnc2c1ncn2[C@@H]1O[C@H](CO)C[C@@H]1O`: the EC50 is 0.531 µM (active) in experiment [1] and > 60 µM (not active) in experiment [2].

With `Cc1onc(-c2ccc(Cl)cc2)c1-c1ccnc(SCC(=O)Nc2cc(Cl)cc(Cl)c2)n1`, the figures for the EC50 in experiment [1] and in experiment [2] were 1.72 µM (active) and > 60 µM (not active), respectively.

Consider `CN(C)Cc1ccccc1-c1cc(N(C)Cc2ccco2)ncn1`, for which the AC50 on Cytochrome P450 3A4 is 25.1 µM (inconclusive). Regarding `CCOc1ccc(CN2CCN(Cc3nc4c(s3)CCCC4)CC2CCO)cc1` (stereo not drawn), the EC50 is 0.772 µM (active) in experiment [1] and > 60 µM (not active) in experiment [2]. In the same order, the values of `Fc1ccccc1Nc1nc(-c2ccncc2)nc2ccccc12` are 1.32 µM (active) and > 60 µM (not active).

Turning to `COc1ncc2nc(C)c(=O)n(C3CC3)c2n1`, the AC50 at Cytochrome P450 3A4 is 25.1 µM (inconclusive). As to `C=CCOc1ccc(/C=N\NC(N)=S)cc1`, the EC50 in experiment [1] was 1.17 µM (active); in experiment [2] it was > 60 µM (inconclusive). As for `CCOc1cc(C#N)c(NC(=O)c2cccnc2Cl)cc1OCC`, the EC50 in experiment [3] was > 195 µM (not active). Regarding `O=C(C1CCN(S(=O)(=O)N2CCOCC2)CC1)N1CCN(c2ccccc2)CC1`, the AC50 on Cytochrome P450 2C9 is 22.4 µM (inconclusive). With `COc1cc(CNCc2c[nH]c3ccccc23)cc(OC)c1`, the EC50 in experiment [1] was 2.93 µM (active); in experiment [2], > 60 µM (not active).

As for `Clc1ccc(Cl)c(Nc2ccnc(SCc3ccccc3)n2)c1`, the AC50 on Cytochrome P450 3A4 was 3.98 µM (inconclusive); on Cytochrome P450 2C9, 6.31 µM (inconclusive). Take `O=C(COC(=O)C1C2CC3OC(=O)C1C3C2)Nc1cccc(Cl)c1` (stereo not drawn): the EC50 in experiment [3] was > 195 µM (not active). Take `O=C(CSc1ncc(-c2ccccc2)n1C1CCCC1)N1CCc2ccccc21`: the values for the EC50 in experiment [1], in experiment [2] and in experiment [5] were 1.81 µM (active), > 60 µM (not active) and > 53 µM (inactive), respectively. `COc1ccc(S(=O)(=O)/C(C#N)=C/Nc2cccc(OC)c2)cc1`: the EC50 in experiment [3] was > 195 µM (not active). For `O=C(Oc1ccc2c(c1)CN(Cc1ccccc1)CO2)c1ccccc1`, the AC50 on Cytochrome P450 3A4 is 3.98 µM (inconclusive). In the case of `COCCCNC(=O)C1CC(=O)N(CCc2ccc(OC)c(OC)c2)C1` (stereo not drawn), the AC50 at Cytochrome P450 3A4 is 15.8 µM (inconclusive). As to `CC1CN(S(=O)(=O)c2ccc(C(=O)Nc3nnc(-c4ccc5c(c4)CCCC5)o3)cc2)CC(C)O1` (stereo not drawn), the EC50 in experiment [1] is 1.86 µM (active); in experiment [2] it was 3.39 µM (active).
